In ChEMBL document CHEMBL1123773, “The role of solvent-accessible surface area in determining partition coefficients” (J Med Chem, 1987) one finds logP and Log k data, which are given here for 48 molecules.

The nature of data set [1]: Partition coefficient (logP). The settings on record: octanol/water.
The nature of data set [2]: Partition coefficient (logP) (chloroform). To be noted: octanol/water.
Data set [3] is described as follows: Partition coefficient (logP) (ether). The settings on record: octanol/water.
Data set [4] can be described thus: Partition coefficient (logP) (hexane). To be noted: octanol/water.
Data set [5] in a line: Diffusion constant for permeability of stratum corneum. The data set is classed as ADME.
The nature of data set [6]: Partition coefficient (logP) (benzene). To be noted: octanol/water.
The nature of data set [7]: Partition coefficient (logP) (carbon tetrachloride). To be noted: octanol/water.

With `COc1ccc(C=O)cc1O` [ISOVANILLIN], the logP in data set [1] is 0.97; in data set [2], 1.18; in data set [3], 0.82; in data set [4], -0.85.
As for `O=C(O)c1ccc(O)cc1` [PARABEN], the lipophilicity (logP) in data set [2] was -0.5; in data set [3], 1.42; in data set [4] it was -1.82.
In the same order, the values of `O=Cc1ccc(O)cc1` [4-HYDROXYBENZALDEHYDE] are -0.12, 1.1 and -0.95.
In the case of `COc1cccc(C=O)c1O`, the logP in data set [1] was 1.37; in data set [2] it was 2.3; in data set [3], 1.35; in data set [4], 0.53.
Turning to `CC(C)CO` [ISOBUTANOL], the log partition coefficient (logP) in data set [1] was 0.65; in data set [2], 0.34; in data set [3], 0.53; in data set [4], -0.6.
In the case of `COc1cc(C=O)ccc1O` [VANILLIN], the log partition coefficient (logP) in data set [2] is reported as 1.42; in data set [3], 0.96; in data set [4] it was -0.72.
Molecule `CC(=O)[C@H]1CC[C@H]2[C@@H]3CC=C4C[C@@H](O)CC[C@]4(C)[C@H]3CC[C@]12C` [PREGNENOLONE] yielded a Log k in data set [5] of 3.17.
Turning to `Nc1ccccc1` [ANILINE], the results for the lipophilicity (logP) in data set [2], in data set [3] and in data set [4] were 1.42, 0.85 and -0.3, respectively.
On to `CCCCCCCO` [1-HEPTANOL], for which the log partition coefficient (logP) in data set [1] was found to be 2.41; in data set [2], 2.41; in data set [3], 2.4; in data set [4], 1.01.
In the case of `CC(=O)[C@@]1(O)CC[C@H]2[C@@H]3CCC4=CC(=O)CC[C@]4(C)[C@H]3CC[C@@]21C` [HYDROXYPROGESTERONE], in data set [5], the Log k was 2.78.
Take `CCCN` [PROPYLAMINE]: the lipophilicity (logP) in data set [1] was 0.28; in data set [2] it was 0.26; in data set [3], -0.54.
On to `O=[N+]([O-])c1cccc(O)c1` [3-NITRO-PHENOL], for which the logP in data set [2] was 0.6; in data set [3] it was 2.18; in data set [4], -1.4.
Turning to `Nc1ccccc1C(=O)O` [ANTHRANILIC ACID], the logP in data set [1] is reported as 1.21; in data set [2], -1.15; in data set [3], 1.43; in data set [4] it was -2.12.
The matching figures for `CCC(N)CC`: 0.57, 0.81, -0.07 and -0.48.
In data set [5], `CC(=O)[C@@]1(O)CC[C@H]2[C@@H]3CC[C@@H]4C[C@H](O)CC[C@]4(C)[C@H]3CC[C@@]21C` [HYDROXYPREGNENOLONE] displayed a Log k of 2.78.
For the molecule `O=C(O)c1ccccc1O` [SALICYLIC ACID], the logP in data set [6] is 0.5; in data set [2], 0.58; in data set [3], 2.37; in data set [4], -0.57; in data set [7] it was 0.
For `CO` [METHYL ALCOHOL], the log partition coefficient (logP) is -0.77 in data set [1], -1.26 in data set [2], -1.15 in data set [3] and -2.8 in data set [4].
As for `C[C@]12CC[C@H]3[C@@H](CCC4=CC(=O)CC[C@@]43C)[C@@H]1CC[C@@H]2C(=O)CO` [DESOXYCORTICOSTERONE], in data set [5], the Log k was 2.65.
On the same count and under the same terms, then `C[C@]12CCC(=O)C=C1CC[C@@H]1[C@@H]2[C@@H](O)C[C@]2(C=O)[C@@H](C(=O)CO)CC[C@@H]12` [ALDOSTERONE], with 0.48.
As to `Nc1ccccc1[N+](=O)[O-]` [2-NITROANILINE], the logP in data set [1] stood at 1.85; in data set [2], 2.13; in data set [3] it was 1.95; in data set [4], 0.25.
Turning to `COc1ccc(O)cc1` [MEQUINOL], the figures for the logP in data set [2], in data set [3] and in data set [4] were 0.23, 1.47 and -0.76, respectively.
In the case of `CCC1(c2ccccc2)C(=O)NC(=O)NC1=O` [PHENOBARBITAL], the logP in data set [1] is 1.71; in data set [2] it was 0.62; in data set [3], 1.51; in data set [4], -2.22.
Consider `CC(=O)[C@H]1CC[C@H]2[C@@H]3CCC4=CC(=O)CC[C@]4(C)[C@H]3CC[C@]12C` [PROGESTERONE], for which, in data set [5], the Log k stood at 3.18.
Turning to `CCCCN` [BUTYLAMINE], the lipophilicity (logP) was 0.74 in data set [1], 0.56 in data set [2], 0.11 in data set [3] and -0.62 in data set [4].
With `C[C@]12C[C@H](O)[C@H]3[C@@H](CCC4=CC(=O)CC[C@@]43C)[C@@H]1CC[C@@H]2C(=O)CO` [CORTICOSTERONE], the Log k in data set [5] was 1.78.
As for `COc1ccccc1O` [GUAIACOL], the logP came out at 1.32 in data set [1], 1.7 in data set [2], 1.44 in data set [3] and 0.36 in data set [4].
In data set [5], `C[C@]12CCC(=O)C=C1CC[C@@H]1[C@@H]2C(=O)C[C@@]2(C)[C@H]1CC[C@]2(O)C(=O)CO` [CORTISONE] registered a Log k of 1.
`CCCC(C)C1(CC)C(=O)NC(=O)NC1=O` (centres undefined) [PENTOBARBITAL]: the log partition coefficient (logP) in data set [1] was 2.1; in data set [2], 1.38; in data set [3] it was 1.28; in data set [4] it was -1.3.
Take `Oc1ccc(O)cc1` [HYDROQUINONE]: the logP in data set [6] is given as 0.15; in data set [2] it was 0.23; in data set [3] it was 0.38; in data set [4], 0.05; in data set [7], 0.04.
As to `O=C(O)c1cccc([N+](=O)[O-])c1`, the values for the log partition coefficient (logP) in data set [2], in data set [3] and in data set [4] were 0.48, 1.97 and -1.22, respectively.
In the same order, the values of `CC(C)=O` [ACETONE] are 0.24, -0.21 and -0.91.
As to `C[C@]12CCC(=O)C=C1CC[C@@H]1[C@@H]2CC[C@@]2(C)[C@H]1CC[C@]2(O)C(=O)CO` [CORTODOXONE], in data set [5], the Log k was determined as 1.88.
Turning to `Nc1cccc([N+](=O)[O-])c1` [3-NITROANILINE], the lipophilicity (logP) in data set [2] is reported as 1.61; in data set [3], 1.71; in data set [4], -0.62.
The matching figures for `O=[N+]([O-])c1ccccc1O` [NITROPHENOLATE]: 2.35, 2.18 and 1.4.
On to `COC(C)=O` [ACETIC ACID METHYL ESTER], for which the log partition coefficient (logP) in data set [2] is given as 1.16; in data set [3] it was 0.43; in data set [4], -0.26.
`CC(C)(C)N` [TERT-BUTYLAMINE]: the lipophilicity (logP) in data set [1] is 0.27; in data set [2], 0.54; in data set [3], -0.26; in data set [4], -0.48.
`CCC(=O)O` [PROPIONIC ACID]: the figures for the logP in data set [2], in data set [3] and in data set [4] were -0.96, 0.27 and -2.14, respectively.
In the same order, the values of `CCOC(C)=O` [ETHYL ACETATE] are 1.8, 0.93 and 0.29.
In the same order, the values of `CCCCCO` [1-PENTANOL] are 1.05, 1.2 and -0.4.
For the molecule `O=C(O)C(Cl)(Cl)Cl` [TRICHLOROACETIC ACID], the logP was 1.33 in data set [1], -0.69 in data set [2], 1.21 in data set [3] and -2.63 in data set [4].
With `C[C@]12CC[C@H]3[C@@H](CCC4=CC(=O)CC[C@@]43C)[C@@H]1CC[C@@H]2O` [TESTOSTERONE], in data set [5], the Log k is 2.6.
As to `O=[N+]([O-])c1ccc(O)cc1` [P-NITROPHENOL], the lipophilicity (logP) in data set [2] was 0.2; in data set [3], 2.01; in data set [4], -2.
As to `O=C(O)CCl` [CHLOROACETIC ACID], the logP is 0.22 in data set [1], -1.92 in data set [2], 0.37 in data set [3] and -3.14 in data set [4].
In the case of `Oc1ccccc1` [PHENOL], the logP is reported as 0.36 in data set [6]; 0.37 in data set [2]; 1.64 in data set [3]; -0.7 in data set [4]; -0.36 in data set [7].
With `Oc1ccc2ccccc2c1` [BETANAPHTHOL], the lipophilicity (logP) in data set [6] is 1.74; in data set [2], 1.74; in data set [3], 1.77; in data set [4], 0.3; in data set [7], 0.99.
On to `CCCCC(=O)O` [VALERIC ACID], for which the log partition coefficient (logP) in data set [1] was 1.39; in data set [2], 0.28; in data set [3], 1; in data set [4] it was -1.
Consider `CCCCCC(=O)O` [HEXANOATE], for which the log partition coefficient (logP) in data set [2] is given as 1.15; in data set [3], 1.95; in data set [4] it was -0.46.
Take `CCN` [ETHYLAMINE]: the logP in data set [1] was -0.3; in data set [2], -0.35; in data set [3] it was -1.18; in data set [4] it was -1.77.

As a reminder, the logP is the decadic logarithm of the partition coefficient of the neutral form, usually between octanol and water. The low end stands for lower lipophilicity, the high end for higher lipophilicity.
